Data taken from US11191765B2, “Heterocyclic compounds for the inhibition of PASK” (BioEnergenix LLC, priority 2012, dated 2021).

What was measured:
PASK = PASK (UniProt #Q96RG2; human recombinant N-terminal GST tagged construct, residues 879-1323) (Homo sapiens (Human), UniProt Q96RG2); assay: PASK ATP Radiochemical Assay; assay type: biochemical; conditions: radiochemical 33P-ATP assay, Myelin Basic Protein substrate, 120 min at room temperature; read-out: IC50 Kinase Domain
Protocol: Biochemical Assay for hPASK Activity
PASK ATP Radiochemical Assay
Purified PASK (UniProt #Q96RG2; human recombinant N-terminal GST tagged construct, residues 879-1323) from insect cells (final concentration 5 nM) is added to freshly prepared Base Reaction Buffer containing 20 mM HEPES (pH 7.5), 10 mM MgCl2, 1 mM EGTA, 0.02% Brij35, 0.02 mg/ml BSA, 0.1 mM Na3VO4, 2 mM DTT, 1% DMSO and Myelin Basic Protein (20 μM final). Test compounds in DMSO are then added and the mixture, followed by delivery of ^33P-ATP (specific activity 0.01 μCi/μl final) to initiate the reaction. The kinase reaction is incubated for 120 min at room temperature. The entire reaction mixture is washed through onto a P81 Phosphocellulose paper and washed three times for 10 minutes in 75 mM phosphoric acid and once in methanol prior to drying and scintillation counting.

PASK (Invitrogen) = PASK (Invitrogen) (Homo sapiens (Human), UniProt Q96RG2); assay: PAS Kinase FRET Assay; assay type: biochemical; conditions: TR-FRET (665 nm/615 nm), Ulight-peptide substrate, 2 hours at 25° C.; read-out: IC50 Kinase Domain
Source text: The aim of the FRET assay is to determine the inhibition potential of test compounds on targeted kinase. This assay platform provides a homogenous screening method for measuring kinase activity by quantitating the amount of phospho-substrate in solution following a kinase reaction.
In the presence of kinase and ATP, the Ulight-peptide is phosphorylated and captured by an anti-phospho-substrate antibody, which brings the Eu chelate donor and Ulight acceptor dyes into close proximity. Upon excitation at 340 nm, the Eu chelate transfers its energy to the Ulight dye, resulting in a fluorescent light emission at 665 nm.
Titration of kinase at 1 mM ATP was achieved via the following protocol. After making serial three-fold dilutions of PASK (Invitrogen) in reaction buffer across the plate; 5 μl of kinase dilution and 5 μl substrate/ATP mix were added to the wells of the white Optiplate-384 (PerkinElmer). The contents of the plate were and incubated at RT for 1 h. The reaction was stopped by adding 5 μl of stop solution to each test well followed by mixing and incubation at RT for 10 minutes. 5 μl of detection mix (detection antibody diluted in detection buffer) was added; the contents of the plate were mixed and then incubated in the dark for 1 hour at RT. The signal was recorded at TR-FRET mode (665 nm/615 nm). The results were graphed to calculate the EC50.
Titration of ATP at the EC50 concentration of kinase to determine ATP Km,app. was performed using the following method. After making serial dilutions of ATP (Invitrogen), 5 μl of ATP dilution and 5 μl substrate/kinase mix were added to the wells of the white Optiplate-384 (PerkinElmer). The contents of the plate were and incubated at RT for 1 h. The reaction was stopped by adding 5 μl of stop solution to each test well followed by mixing and incubation at RT for 10 minutes. 5 μl of detection mix (detection antibody diluted in detection buffer) was added; the contents of the plate were mixed and then incubated in the dark for 1 hour at RT. The signal was recorded at TR-FRET mode (665 nm/615 nm). The results were graphed to calculate the EC50 as the ATP Km,app.
Compound screening was done via the following method. 10 mM stock solution of test compound in DMSO was prepared by dissolving test compound in DMSO at RT for 1 hour, and then sonicating at 100% output for 8 minutes. If compound is not soluble under this condition, it was diluted to 3 mM. Kinase reaction buffer was prepared containing 10 mM MgCl2, 50 mM HEPES, 1 mM EGTA, 0.01% TWEEN-20, 2 mM DTT. Serial dilutions of the test compounds were prepared at 4×final assay concentrations using Freedom EVO200® dispensing system as follows: 12×10^−5 M, 4×10^−5 M, 1.33×10^−5 M, 4.44×10^−6 M, 1.48×10^−6 M, 4.92×10^−7 M, 1.65×10^−7 M, 5.48×10^−7 M, 1.82×10^−8 M, 6.09×10^−9, 2.03×10^−9 M. Test compounds (2.5 μl at 4×the final assay concentration) was added to wells using Freedom EVO200® dispensing system. As a positive control, 2.5 μl of positive compound was added to assay wells, and 2.5 μl of DMSO to assay wells as vehicle control. Kinase solution was prepared in reaction buffer at 2×final assay concentration. Kinase solution (5 μl) was added to each well of the assay plate. The substrate and ATP solution was prepared in kinase reaction buffer at 4×final assay concentration. The kinase reaction was started by adding 2.5 μl of substrate+ATP mix solution to each well of the assay plate. The plate is mixed on a plate shaker; then covered and allowed to react for 2 hours in the dark at 25° C. without shaking. The reaction was stopped by adding 5 μl of stop solution to each test well followed by mixing and incubation at RT for 10 minutes in the dark. 5 μl of detection mix (detection antibody diluted in detection buffer) was added; the contents of the plate were mixed and then incubated in the dark for 1 hour at RT. The signal was recorded at TR-FRET mode (665 nm/615 nm).

Chain of PASK (Invitrogen) (Q96RG2 999-1251): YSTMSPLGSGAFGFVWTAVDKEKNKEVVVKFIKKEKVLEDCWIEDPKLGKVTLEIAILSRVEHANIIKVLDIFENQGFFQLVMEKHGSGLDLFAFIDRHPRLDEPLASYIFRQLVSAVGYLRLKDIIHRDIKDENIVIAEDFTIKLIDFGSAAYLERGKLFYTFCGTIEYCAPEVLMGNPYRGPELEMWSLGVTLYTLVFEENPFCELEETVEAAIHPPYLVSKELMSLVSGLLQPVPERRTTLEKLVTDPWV
Chain of PASK (Q96RG2 879-1323, change not shown): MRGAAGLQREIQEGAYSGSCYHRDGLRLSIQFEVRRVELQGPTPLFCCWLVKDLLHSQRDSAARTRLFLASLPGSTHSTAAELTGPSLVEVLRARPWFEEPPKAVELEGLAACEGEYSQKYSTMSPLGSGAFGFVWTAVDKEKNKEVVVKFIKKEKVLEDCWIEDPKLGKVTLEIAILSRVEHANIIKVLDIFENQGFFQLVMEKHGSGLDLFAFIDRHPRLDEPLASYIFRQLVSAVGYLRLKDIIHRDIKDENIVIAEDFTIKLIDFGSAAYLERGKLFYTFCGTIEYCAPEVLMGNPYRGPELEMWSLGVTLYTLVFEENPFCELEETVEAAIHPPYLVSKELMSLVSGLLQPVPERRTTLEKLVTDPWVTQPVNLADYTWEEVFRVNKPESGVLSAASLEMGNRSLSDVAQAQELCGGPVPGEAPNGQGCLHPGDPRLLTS

Row | IC50 (PASK) [µM] | IC50 (PASK (Invitrogen)) [µM] | Structure (SMILES)
1 | ≤ 10 | ≤ 10 | O=c1cc(-c2ccc3c(c2)OCO3)[nH]c2nc(-c3ccc(Cl)cc3)nn12 [Example 15, 5-(Benzo[d][1,3]dioxol-5-yl)-2-(4-chlorophenyl)-[1,2,4]triazolo[1,5-a]pyrimidin-7(4H)-one]
2 | ≤ 10 |  | COc1ccccc1-c1cc(=O)n2nc(-c3ccccc3)nc2[nH]1 [Example 30, 5-(2-Methoxyphenyl)-2-phenyl-[1,2,4]triazolo[1,5-a]pyrimidin-7(4H)-one]
3 | ≤ 10 |  | COc1ccc(-c2cc(=O)n3ncnc3[nH]2)cc1 [Example 38, 5-(4-Methoxyphenyl)-[1,2,4]triazolo[1,5-a]pyrimidin-7(4H)-one]
4 | ≤ 10 |  | COc1cccc(-c2cc(=O)n3nc(-c4ccccc4)nc3[nH]2)c1 [Example 33, 5-(3-Methoxyphenyl)-2-phenyl-[1,2,4]triazolo[1,5-a]pyrimidin-7(4H)-one]
5 | ≤ 10 |  | COc1ccc(-c2cc(=O)n3ncnc3[nH]2)cc1OC [Example 37, 5-(3,4-Dimethoxyphenyl)-[1,2,4]triazolo[1,5-a]pyrimidin-7(4H)-one]
6 | ≤ 10 |  | COc1ccc(-c2nc3[nH]c(-c4ccccc4)cc(=O)n3n2)cc1 [Example 35, 2-(4-Methoxyphenyl)-5-phenyl-[1,2,4]triazolo[1,5-a]pyrimidin-7(4H)-one]
7 | ≤ 10 | ≤ 10 | COc1cc(-c2cc(=O)n3nc(-c4ccc(Cl)cc4)nc3[nH]2)ccc1Cl [Example 8, 5-(4-Chloro-3-methoxyphenyl)-2-(4-chlorophenyl)-[1,2,4]triazolo[1,5-a]pyrimidin-7(4H)-one]
8 | ≤ 10 |  | O=c1cc(-c2ccccc2)[nH]c2nc(-c3ccccc3)nn12 [Example 31, 2,5-Diphenyl-[1,2,4]triazolo[1,5-a]pyrimidin-7(4H)-one]
9 | ≤ 10 | ≤ 10 | COc1ccc(-c2cc(=O)n3nc(-c4ccc(Cl)cc4)nc3[nH]2)cc1 [Example 34, 2-(4-Chlorophenyl)-5-(4-methoxyphenyl)-[1,2,4]triazolo[1,5-a]pyrimidin-7(4H)-one]
10 | ≤ 10 |  | O=c1cc(-c2ccccc2)[nH]c2nc(-c3ccccc3Cl)nn12 [Example 36, 2-(2-Chlorophenyl)-5-phenyl-[1,2,4]triazolo[1,5-a]pyrimidin-7(4H)-one]
11 |  | ≤ 10 | O=c1cc(-c2ccc3[nH]ncc3c2)[nH]c2nc(-c3ccc(Cl)c(Cl)c3)nn12 [Example 10, 2-(3,4-Dichlorophenyl)-5-(1H-indazol-5-yl)-[1,2,4]triazolo[1,5-a]pyrimidin-7(4H)-one]
12 | ≤ 10 |  | COc1ccc(-c2cc(=O)n3nc(-c4ccccc4)nc3[nH]2)cc1 [Example 32, 5-(4-Methoxyphenyl)-2-phenyl-[1,2,4]triazolo[1,5-a]pyrimidin-7(4H)-one]
13 |  | ≤ 10 | CC(C)c1nc2[nH]c(-c3ccc4[nH]nnc4c3)cc(=O)n2n1 [Example 14, 5-(1H-Benzo[d][1,2,3]triazol-5-yl)-2-isopropyl-[1,2,4]triazolo[1,5-a]pyrimidin-7(4H)-one]
